The text below walks through data of US6770747B1, “Genes encoding protein having activity of transferring sugar onto aurone” (Suntory Limited, priority 1999, dated 2004).

Entries after “also recorded” stand apart in the source; their conditions may differ.

For experiment [1], the system named is product of the pS.b UFGT1 gene. Description: Glycosyl transferase activity of pS.b UFGT1 gene product (crude E. coli extract, UDP-glucose, HPLC). It counts as biochemical, Scutellaria baicalensis. To be noted: crude enzyme solution, 30° C., HPLC detection of glycosides. As to the method:
The activity of the pS.b UFGT1 gene derived from Scutellaria baicalensis of transferring a glycosyl group to aurones was determined using an expression vector pESBGT-1 in E. coli prepared by the following method.
The PCR product was digested with NdeI and BamHI, and then was ligated to the NdeI- and BamHI-digested pET-3a vector (Stratagene) to construct pESBGT-1 (FIG. 1). Using each of pESBGT-1 and pET-3a vector, it was transformed into Epicurian Coli BL21 (DE3) (Stratagene). The transformants were incubated overnight at 37° C. in 3 ml of a LB medium containing 50 μg/ml of ampicillin. The preculture (500 μl) was added to 50 ml of a LB medium containing 50 μg/ml of ampicillin, and cultured until A600 reached 0.6-1.0. Then isopropyl-β-D-thiogalactopyranoside (IPTG) was added thereto to a final concentration of 0.5 mM, which was cultured at 28° C. for 4 hours and centrifuged (5000 rpm, 10 minutes, 4° C.) to collect the cells.
The pellets were suspended in 5 ml of the buffer (10 mM sodium phosphate, pH 6.5, 1 mM β-mercaptoethanol (2-ME)). After the E. coli cells were disrupted by a sonicator, it was centrifuged (15,000 rpm, 5 minutes, […]), and the supernatant obtained was used as a crude enzyme solution for the next enzyme reaction.
In addition to aureusidin, the enzymatic activity was determined using naringenin or luteolin as the substrate.
To 50 μl of the crude enzyme solution were added 0.1 M Tris-HCl, pH 8.0, and 150 μl of 0.05% 2-ME, and then incubated at 30° C. for 10 minutes. Then 5 μl of 4.66 mM aureusidin and 50 μl of 5 mM UDP-glucose were added thereto, and was allowed to react at 30° C. for 1 hour. […] The filtrate was analyzed by high performance liquid chromatography. […]
To 20 μl of the crude enzyme solution were added 25 μl of 0.1 M citric acid-phosphate buffer, pH 6.5, 5 μl each of 5 μM substrate, and 25 μl of 5 mM UDP-glucose in a total volume of 250 μl, and then incubated at 30° C. for 30 minutes. […] The filtrate was analyzed by high performance liquid chromatography. […]

The test system of the next experiment is AmGT1. Nature of the experiment: Glycosyl transferase activity of the AmGT1 cDNA recombinant protein. It counts as biochemical, snapdragons (Antirrhinum majus). The conditions noted are these: crude extract, UDP-glucose, HPLC, as in Example 1. As to the method: (§1) To 50 μl of the crude enzyme solution were added 0.1 M Tris-HCl, pH 8.0, and 150 μl of 0.05% 2-ME, and then incubated at 30° C. for 10 minutes. Then 5 μl of 4.66 mM aureusidin and 50 μl of 5 mM UDP-glucose were added thereto, and was allowed to react at 30° C. for 1 hour. After the reaction was stopped by adding 200 μl of 90% acetonitrile containing 5% trifluoroacetic acid (TFA), it was centrifuged at 15,000 rpm and 4° C. for 3 minutes. The supernatant thus obtained was filtered (pore size 0.45 μm, 4 mm Millex-LH, Millipore) to remove insoluble substances. The filtrate was analyzed by high performance liquid chromatography.
(§2) The analytical condition was as follows: The column used was Asahipak-ODP-50 (4.6 mm φ×250 mm, Showa Denko). The mobile phase comprised water containing 0.1% TFA as solution A and 90% CH3CN containing 0.1% TFA as solution B. After a linear gradient from 20% solution B to 100% solution B for 20 minutes, 100% solution B was retained for 5 minutes. The flow rate was 0.6 ml/min. Detection used A380 nm, and an absorption spectrum at 250-400 nm using Shimadzu PDA detector SPD-M6A.
The transformant obtained in Example 4 was cultured, extracted and the enzymatic activity was measured as in Example 1.

For a further experiment, the system named is Ph7GTa. Description: Glycosyl transferase activity of Ph7GTa cDNA recombinant protein. It counts as biochemical, petunia (Petunia hybrida). To be noted: crude extract, UDP-glucose, HPLC, as in Example 1. The procedure: as §1, §2
(§3) The transformants obtained in Example 8 were cultured, extracted and the enzymatic activity was measured as in Example 1. The enzymatic activity was measured using aureusidin as the substrate. […]

The next experiment concerns Ph7GTb. Description: Glycosyl transferase activity of Ph7GTb cDNA recombinant protein. It counts as biochemical, petunia (Petunia hybrida). To be noted: crude extract, UDP-glucose, HPLC, as in Example 1. As to the method:
as §1, §2, §3

Experiment [2] deals with product of the pS.b UFGT1 gene. The conditions noted are these: substrate baicalein; cited from earlier work.
Experiment [3] deals with T1, flavonoid-3-glycosyl transferase derived from gentians (Gentiana triflora, UniProt Q96493).
T1 construct: host or cells: E. coli
T1 sequence (Q96493 1-453): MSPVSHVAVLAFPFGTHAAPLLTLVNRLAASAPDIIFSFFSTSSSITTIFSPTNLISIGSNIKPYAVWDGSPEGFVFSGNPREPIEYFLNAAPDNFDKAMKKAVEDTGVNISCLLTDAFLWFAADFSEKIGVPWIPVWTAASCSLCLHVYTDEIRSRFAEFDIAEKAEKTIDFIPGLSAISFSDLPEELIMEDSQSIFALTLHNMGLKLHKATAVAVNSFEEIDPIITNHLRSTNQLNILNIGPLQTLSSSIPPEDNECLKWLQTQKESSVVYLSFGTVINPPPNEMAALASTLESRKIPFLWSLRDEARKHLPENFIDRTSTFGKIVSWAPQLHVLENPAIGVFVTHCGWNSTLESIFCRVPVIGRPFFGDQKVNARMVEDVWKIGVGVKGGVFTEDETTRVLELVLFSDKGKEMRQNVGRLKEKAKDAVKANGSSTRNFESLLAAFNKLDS
To be noted: substance used as substrate; enzyme expressed in E coli; cited from earlier work.

Experiment [4] addresses T2, flavonoid-3-glycosyl transferase derived from grapes (Vitis vinifera, UniProt P51094).
T2 construct: host or cells: E. coli
T2 sequence (P51094 1-456): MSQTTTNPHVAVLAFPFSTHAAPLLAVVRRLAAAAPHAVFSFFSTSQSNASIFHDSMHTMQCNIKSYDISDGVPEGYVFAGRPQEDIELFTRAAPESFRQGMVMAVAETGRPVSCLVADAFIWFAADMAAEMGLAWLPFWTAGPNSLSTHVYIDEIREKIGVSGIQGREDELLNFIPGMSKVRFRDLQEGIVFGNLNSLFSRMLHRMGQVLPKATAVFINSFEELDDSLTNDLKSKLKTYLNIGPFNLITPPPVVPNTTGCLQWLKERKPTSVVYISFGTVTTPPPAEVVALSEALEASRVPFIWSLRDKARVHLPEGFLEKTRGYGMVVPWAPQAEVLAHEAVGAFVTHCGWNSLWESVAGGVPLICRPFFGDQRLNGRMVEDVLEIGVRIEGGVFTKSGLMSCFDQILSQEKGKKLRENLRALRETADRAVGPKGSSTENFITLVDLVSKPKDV
To be noted: substance used as substrate; activity determined in E. coli; cited from earlier work.

For the compound `O=C1/C(=C/c2ccc(O)c(O)c2)Oc2cc(O)cc(O)c21` [aureusidin], in experiment [1], the “glycosilation of the substrate by the pS.b UFGT1 product” value is on record as “can glycosilate”. Moreover, the “glycosyl transfer to the substrate by AmGT1” value with AmGT1 is “can transfer a glycosyl group to the positions 6 and 4”. In the experiment on Ph7GTa, the “glycosilation of the substrate by Ph7GTa” value is “activity of glycosilating”. For the same compound, the “glycosilation of the substrate by Ph7GTb” value in the experiment with Ph7GTb is “activity of glycosilating”.
With `O=c1cc(-c2ccccc2)oc2cc(O)c(O)c(O)c12` [baicalein], in experiment [2], the “portion detected as 7 glycoside after the reaction is complete” value is roughly 100%.
For `O=c1c(O)c(-c2ccc(O)cc2)oc2cc(O)cc(O)c12` [kaempferol], the “glycosyl transferase activity relative to a 100% activity to delphinidins” value in experiment [3] is listed as 7.0%.
Regarding `O=c1cc(-c2ccc(O)c(O)c2)oc2cc(O)cc(O)c12` [luteolin], the “glycosilation of the substrate by the pS.b UFGT1 product” value in experiment [1] is recorded as “can glycosilate”.
As for `O=c1c(O)c(-c2cc(O)c(O)c(O)c2)oc2cc(O)cc(O)c12` [myricetin], the “glycosyl transferase activity relative to a 100% activity to delphinidins” value in experiment [3] is on record as 4.4%.
For the compound `O=C1C[C@@H](c2ccc(O)cc2)Oc2cc(O)cc(O)c21` [naringenin], the “glycosilation of the substrate by the pS.b UFGT1 product” value in experiment [1] is on record as “very little effect; also recorded: no reaction occurred”.
Take `O=c1c(O)c(-c2ccc(O)c(O)c2)oc2cc(O)cc(O)c12` [quercetin]: in experiment [3], the “glycosyl transferase activity relative to a 100% activity to delphinidins” value is 6.5%. In experiment [4], the Km is 15 µM and the Vmax is 18.9 nkatals/mg.
For cyanidins, in experiment [3], the “glycosyl transferase activity relative to a 100% activity to delphinidins” value is reported as 61%. In addition, in experiment [4], the Km was 30 µM and the Vmax is on record as 905 nkatals/mg.
Take delphinidins: the “glycosyl transferase activity relative to a 100% activity to delphinidins” value in experiment [3] was 100%.
Turning to pelargonidins, the “glycosyl transferase activity relative to a 100% activity to delphinidins” value in experiment [3] is listed as 38%.

As usually defined, the Km is the substrate concentration at which the rate is half of its maximum.
